Laboratory results taken from patent publication US8618299B2, “Azinone-substituted azapolycycle MCH-1 antagonists, methods of making, and use thereof” (Albany Molecular Research, Inc., priority 2009, dated 2013).

Legend:
[1] = target: human MCH-1 receptor (Homo sapiens (Human), UniProt Q99705); assay: Binding assay for human melanin-concentrating hormone (MCH1) receptor; conditions: membranes from CHO-K1 cells expressing human MCH1 receptor, 1.4 nM [3H]-labeled radioligand, 60 min at 25° C., pH 7.4, Ki from Cheng Prusoff equation
Protocol: Binding Assay for Human Melanin-Concentrating Hormone (MCH1) Receptor
Evaluation of the affinity of compounds for the human MCH-1 receptor was accomplished using 4-(3,4,5-tritritiumbenzyloxy)-1-(1-(2-(pyrrolidin-1-yl)ethyl)-1H-indazol-5-yl)pyridin-2(1H)-one and membranes prepared from stable CHO-K1 cells expressing the human MCH1 receptor obtained from Euroscreen (Batch 1138). Cell membrane homogenates (8.92 μg protein) were incubated for 60 min at 25° C. with 1.4 nM of the [^3H]-labeled compound in the absence or presence of the test compound in 50 mM Tris-HCl buffer, pH 7.4. Nonspecific binding was determined in the presence of 50 μM 1-(5-(4-cyanophenyl)bicyclo[3.1.0]hexan-2-yl)-3-(4-fluoro-3-(trifluoromethyl)phenyl)-1-(3-(4-methylpiperazin-1-yl)propyl)urea. Following incubation, the samples were filtered rapidly under vacuum through Skatron 11731 filters, pre-soaked in 0.5% polyethylenimine, and washed with ice-cold 50 mM Tris-HCl buffer, pH 7.4, (wash setting 9,9,0) using a Skatron cell harvester. The filters were counted for radioactivity in a liquid scintillation counter (Tri-Carb 2100TR, Packard) using a scintillation cocktail (Ultima Gold MV, Perkin Elmer).
The results are expressed as a percent inhibition of the control radioligand specific binding. The IC50 value (concentration causing a half-maximal inhibition of control specific binding) and Hill coefficient (nH) were determined by non-linear regression analysis of the competition curve using Hill equation curve fitting. The inhibition constant (Ki) was calculated from the Cheng Prusoff equation: (Ki=IC50/(1+(L/KD)), where L=concentration of radioligand in the assay, and KD=affinity of the radioligand for the receptor.

Chain of human MCH-1 receptor (Q99705 whole entry): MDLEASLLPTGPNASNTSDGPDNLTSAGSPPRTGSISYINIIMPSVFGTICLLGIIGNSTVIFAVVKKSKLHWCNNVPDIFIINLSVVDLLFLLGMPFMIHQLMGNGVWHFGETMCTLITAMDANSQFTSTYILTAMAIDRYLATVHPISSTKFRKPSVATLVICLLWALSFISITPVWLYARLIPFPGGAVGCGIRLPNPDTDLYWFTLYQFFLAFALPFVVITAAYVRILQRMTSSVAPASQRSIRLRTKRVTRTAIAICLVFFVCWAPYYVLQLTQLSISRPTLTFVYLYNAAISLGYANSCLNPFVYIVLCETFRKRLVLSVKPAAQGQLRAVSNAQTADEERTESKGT

| SMILES | Ki [1] [nM] | melting point [°C] | Ki ([1]; Hydrochloride) [nM] |
| --- | --- | --- | --- |
| Cl.Cn1c2c(c3ccc(-n4ccc(OCc5ncc(F)cc5F)cc4=O)nc31)CN1CCCC1C2 (stereo not drawn) [Example 56, 4-((3,5-Difluoropyridin-2-yl)methoxy)-1-(11-methyl-5,7,8,9,9a,10-hexahydro-11H-pyrido[3′,2′:4,5]pyrrolo[3,2-f]indolizin-2-yl)pyridin-2(1H)-one Hydrochloride] | 121 | 220 to 230 |  |
| Cl.Cn1c2c(c3ccc(-n4ccc(OCc5ccccc5)cc4=O)cc31)CCN1CCCC21 (single isomer, unassigned; (+)) [Example 4, (+)4-(Benzyloxy)-1-(11-methyl-2,3,5,6,11,11b-hexahydro-1H-indolizino[8,7-b]indol-9-yl)pyridin-2(1H)-one Hydrochloride] |  | 227 to 230 | 12.3 |
| Cl.Cn1c2c(c3ccc(-n4ccc(OCc5ccc(F)cn5)cc4=O)nc31)CN1CCCC1C2 (stereo not drawn) [Example 51, 4-((5-Fluoropyridin-2-yl)methoxy)-1-(11-methyl-5,7,8,9,9a,10-hexahydro-11H-pyrido[3′,2′:4,5]pyrrolo[3,2-f]indolizin-2-yl)pyridin-2(1H)-one Hydrochloride] | 37 | 220 to 230 |  |
| Cl.Cn1c2c(c3ccc(-n4ccc(OCc5ccccc5)cc4=O)cc31)CCN1CCCCC21 (stereo not drawn) [Example 5, 4-(Benzyloxy)-1-(12-methyl-1,2,3,4,6,7,12,12b-octahydroindolo[2,3-a]quinolizin-10-yl)pyridin-2(1H)-one Hydrochloride] | 31 | 210 to 213 |  |
| Cl.O=c1cc(-c2ccc(C(F)(F)F)nc2)ccn1-c1ccc2c3c([nH]c2c1)CCN1CCCC31 (stereo not drawn) [Example 27, 1-(2,3,5,6,7,11c-Hexahydro-1H-indolizino[7,8-b]indol-9-yl)-4-(6-(trifluoromethyl)pyridin-3-yl)pyridin-2(1H)-one Hydrochloride] | 34 | 205 to 215 |  |
| Cl.Cn1c2c(c3ccc(-n4ccc(OCc5ccc(F)cc5F)cc4=O)nc31)CN1CCCC1C2 (stereo not drawn) [Example 55, 4-(2,4-Difluorobenzyloxy)-1-(11-methyl-5,7,8,9,9a,10-hexahydro-11H-pyrido[3′,2′:4,5]pyrrolo[3,2-f]indolizin-2-yl)pyridin-2(1H)-one Hydrochloride] | 31 | 140 to 150 |  |
| Cl.Cn1c2c(c3ccc(-n4ccc(-c5ccc(C(F)(F)F)nc5)cc4=O)nc31)CN1CCCC1C2 (stereo not drawn) [Example 53, 1-(11-Methyl-5,7,8,9,9a,10-hexahydro-11H-pyrido[3′,2′:4,5]pyrrolo[3,2-f]indolizin-2-yl)-4-(6-(trifluoromethyl)pyridin-3-yl)pyridin-2(1H)-one Hydrochloride] | 33 | 280 to 290 |  |
| Cl.Cn1c2c(c3ccc(-n4ccc(OCc5ccc(C(F)(F)F)nc5)cc4=O)cc31)CN1CCCC1C2 (stereo not drawn) [Example 32, 1-(10-Methyl-2,3,5,10,11,11a-hexahydro-1H-indolizino[7,6-b]indol-8-yl)-4-((6-(trifluoromethyl)pyridin-3-yl)methoxy)pyridin-2(1H)-one Hydrochloride] | 24 | 255 to 259 |  |
| Cl.Cn1c2c(c3ccc(-n4ccc(-c5ccc(C(F)(F)F)nc5)cc4=O)nc31)C1CCCN1CC2 (stereo not drawn) [Example 48, 1-(7-Methyl-2,3,5,6,7,11c-hexahydro-1H-pyrido[3′,2′:4,5]pyrrolo[2,3-g]indolizin-9-yl)-4-(6-(trifluoromethyl)pyridin-3-yl)pyridin-2(1H)-one Hydrochloride] | 47 | 290 to 300 |  |
| Cl.Cn1c2c(c3ccc(-n4ccc(OCc5ccc(F)cn5)cc4=O)cc31)CN1CCCCC1C2 (single isomer, unassigned; (-)) [Example 38, (−)-4-((5-Fluoropyridin-2-yl)methoxy)-1-(5-methyl-5,6,6a,7,8,9,10,12-octahydroindolo[2,3-b]quinolizin-3-yl)pyridin-2(1H)-one Hydrochloride] |  | 270 to 280 | 19 |

Continued, values first:

| Ki [1] [nM] | melting point [°C] | Ki ([1]; Hydrochloride) [nM] | SMILES |
| --- | --- | --- | --- |
| 8.1 | 255 to 258 |  | Cl.Cn1c2c(c3ccc(-n4ccc(OCc5ccccc5)cc4=O)cc31)CN1CCCC1C2 (stereo not drawn) [Example 11, 4-(Benzyloxy)-1-(10-methyl-2,3,5,10,11,11a-hexahydro-1H-indolizino[7,6-b]indol-8-yl)pyridin-2(1H)-one Hydrochloride] |
| 12 | 250 to 254 |  | Cl.Cn1c2c(c3ccc(-n4ccc(OCc5ccc(C(F)(F)F)nc5)cc4=O)cc31)C1CCCN1CC2 (stereo not drawn) [Example 18, 1-(7-Methyl-2,3,5,6,7,11c-hexahydro-1H-indolizino[7,8-b]indol-9-yl)-4-((6-(trifluoromethyl)pyridin-3-yl)methoxy)pyridin-2(1H)-one Hydrochloride] |
| 8.5 | 270 to 273 |  | Cl.O=c1cc(OCc2ccccc2)ccn1-c1ccc2c3c([nH]c2c1)CC1CCCCN1C3 (stereo not drawn) [Example 29, 4-(Benzyloxy)-1-(5,6,6a,7,8,9,10,12-octahydroindolo[2,3-b]quinolizin-3-yl)-pyridin-2(1H)-one Hydrochloride] |
| 12 | 260 to 264 |  | Cl.Cn1c2c(c3ccc(-n4ccc(OCc5ccccc5)cc4=O)cc31)C1CCCN1CC2 (stereo not drawn) [Example 17, 4-(Benzyloxy)-1-(7-methyl-2,3,5,6,7,11c-hexahydro-1H-indolizino[7,8-b]indol-9-yl)pyridin-2(1H)-one Hydrochloride] |
| 24 | 260 to 262 |  | Cl.Cn1c2c(c3ccc(-n4ccc(OCc5ccc(C(F)(F)F)nc5)cc4=O)cc31)CN1CCCCC1C2 (stereo not drawn) [Example 34, 1-(5-Methyl-5,6,6a,7,8,9,10,12-octahydroindolo[2,3-b]quinolizin-3-yl)-4-((6-(trifluoromethyl)pyridin-3-yl)methoxy)pyridin-2(1H)-one Hydrochloride] |
| 10 | 150 to 160 |  | Cl.Cn1c2c(c3ccc(-n4ccc(OCc5ccc(Cl)cc5F)cc4=O)nc31)C1CCCN1CC2 (stereo not drawn) [Example 47, 4-(4-Chloro-2-fluorobenzyloxy)-1-(7-methyl-2,3,5,6,7,11c-hexahydro-1H-pyrido[3′,2′:4,5]pyrrolo[2,3-g]indolizin-9-yl)pyridin-2(1H)-one Hydrochloride] |
| 20 | 204 to 208 |  | Cl.Cn1c2c(c3ccc(-n4ccc(OCc5ccc(Cl)cn5)cc4=O)cc31)CCN1CCCCC21 (stereo not drawn) [Example 8, 4-((5-Chloropyridin-2-yl)methoxy)-1-(12-methyl-1,2,3,4,6,7,12,12b-octahydroindolo[2,3-a]quinolizin-10-yl)pyridin-2(1H)-one Hydrochloride] |
| 7 | 270 to 273 |  | Cl.O=c1cc(OCc2ccccc2)ccn1-c1ccc2c3c([nH]c2c1)CC1CCCN1C3 (stereo not drawn) [Example 16, 4-(Benzyloxy)-1-(2,3,5,10,11,11a-hexahydro-1H-indolizino[7,6-b]indol-8-yl)pyridin-2(1H)-one Hydrochloride] |
